Measurements taken from patent US7217730B2, “Method for the use of pyranoindole derivatives to treat infection with Hepatitis C virus” (Wyeth, priority 2002, dated 2007).
pIC50: −log10 of the molar value.

Experiments:
[1] = target: T1, NS5B from the BK strain (genotype 1b) (Hepatitis C virus genotype 1b, UniProt P26663); assay: Hepatitis C polymerase inhibition, NS5B BK strain, 33P-GTP filter assay; type: biochemical; conditions: Table 1B; NS5B BK strain; read-out: BK IC50
T1 construct: NS5B from the BK strain (genotype 1b) is expressed in E. coli as a protein in which the 21 C-terminal amino acids are replaced; made in house; host or cells: E. coli
Outline: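 Radiolabelled RNA synthesis was measured by filter capture and scintillation counting after EDTA stop. His-tagged, C-terminally truncated (Δ21) genotype 1b BK NS5B from E. coli, pre-exposed to compound for 15 min, copied a self-primed RNA template (~3 nM) with α-[33P]-GTP for 2 h at room temperature.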

[2] = target: BB7 (RNA-dependent RNA polymerase hepatitis C virus protein sequence derived from HCV replicon) (Hepatitis C virus genotype 1b, UniProt Q9WMX2); assay: Hepatitis C polymerase inhibition, BB7 sequence; type: biochemical; conditions: Table 1B
BB7 (RNA-dependent RNA polymerase hepatitis C virus protein sequence derived from HCV replicon), sequence (Q9WMX2 2420-3010): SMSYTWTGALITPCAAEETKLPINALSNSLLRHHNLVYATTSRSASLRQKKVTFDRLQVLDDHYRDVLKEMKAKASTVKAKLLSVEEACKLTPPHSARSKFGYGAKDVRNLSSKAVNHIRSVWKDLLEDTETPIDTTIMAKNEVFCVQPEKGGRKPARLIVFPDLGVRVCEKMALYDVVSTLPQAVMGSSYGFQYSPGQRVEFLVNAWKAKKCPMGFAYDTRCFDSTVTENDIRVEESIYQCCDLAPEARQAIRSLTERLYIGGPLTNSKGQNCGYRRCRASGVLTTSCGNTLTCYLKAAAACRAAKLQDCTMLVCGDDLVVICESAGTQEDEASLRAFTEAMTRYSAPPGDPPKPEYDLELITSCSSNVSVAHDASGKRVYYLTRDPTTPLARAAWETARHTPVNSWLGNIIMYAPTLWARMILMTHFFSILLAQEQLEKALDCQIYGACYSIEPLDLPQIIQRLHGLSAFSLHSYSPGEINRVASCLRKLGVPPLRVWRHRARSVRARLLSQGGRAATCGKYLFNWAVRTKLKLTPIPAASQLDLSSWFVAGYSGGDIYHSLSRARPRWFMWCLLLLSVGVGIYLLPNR

T1 sequence (P26663 2420-2989): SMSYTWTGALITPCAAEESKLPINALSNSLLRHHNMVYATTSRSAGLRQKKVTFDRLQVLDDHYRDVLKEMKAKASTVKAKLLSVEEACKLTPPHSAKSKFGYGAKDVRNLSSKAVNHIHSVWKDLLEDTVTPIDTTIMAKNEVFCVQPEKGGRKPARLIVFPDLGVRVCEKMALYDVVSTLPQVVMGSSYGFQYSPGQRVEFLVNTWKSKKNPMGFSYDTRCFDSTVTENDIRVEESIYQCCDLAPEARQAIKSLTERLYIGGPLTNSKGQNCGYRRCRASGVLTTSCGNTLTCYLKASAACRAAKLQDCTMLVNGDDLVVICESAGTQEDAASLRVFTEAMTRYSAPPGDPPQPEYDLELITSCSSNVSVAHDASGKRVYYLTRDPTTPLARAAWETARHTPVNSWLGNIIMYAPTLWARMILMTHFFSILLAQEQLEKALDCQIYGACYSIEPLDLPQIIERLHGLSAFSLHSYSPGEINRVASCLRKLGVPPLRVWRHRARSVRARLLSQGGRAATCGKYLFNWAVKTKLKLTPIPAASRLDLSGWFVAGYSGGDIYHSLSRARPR

Compound | pIC50 [1] | pIC50 [2]
N#Cc1ccc(F)c2[nH]c3c(c12)CCOC3(CC(=O)O)C1CC1 (centres unmarked) [Example 306, (5-cyano-1-cyclopropyl-8-fluoro-1,3,4,9-tetrahydropyrano[3,4-b]indol-1-yl)acetic acid] | < 4.52 | < 4.52
N#Cc1ccc(F)c2[nH]c3c(c12)CCOC3(CC(=O)O)C1CCC1 (centres unmarked) [Example 307, (5-cyano-1-cyclobutyl-8-fluoro-1,3,4,9-tetrahydropyrano[3,4-b]indol-1-yl)acetic acid] | 5.24 | 5.02
N#Cc1ccc(F)c2[nH]c3c(c12)CCOC3(CC(=O)O)C1CCCC1 (centres unmarked) [Example 308, (5-cyano-1-cyclopentyl-8-fluoro-1,3,4,9-tetrahydropyrano[3,4-b]indol-1-yl)acetic acid] | < 4.52 | < 4.52
N#Cc1ccc(F)c2[nH]c3c(c12)CCOC3(CC(=O)O)CC1CCCC1 (centres unmarked) [Example 310, (5-cyano-1-cyclopentylmethyl-8-fluoro-1,3,4,9-tetrahydropyrano[3,4-b]indol-1-yl)acetic acid] | < 4.60 | < 4.60
CC[C@H](C)[C@@]1(CC(=O)O)OCCc2c1[nH]c1c(F)ccc(C#N)c21 [Example 315, (1R,10S)-[5-cyano-8-fluoro-1-(1-methylpropyl)-1,3,4,9-tetrahydropyrano[3,4-b]indol-1-yl]acetic acid] | 6.40 | 5.68
CC[C@H](C)[C@]1(CC(=O)O)OCCc2c1[nH]c1c(F)ccc(C#N)c21 [Example 316, (1S,10S)-[5-cyano-8-fluoro-1-(1-methylpropyl)-1,3,4,9-tetrahydropyrano[3,4-b]indol-1-yl]acetic acid] | < 4.52 | < 4.52
Cc1cc(F)c(C#N)c2c3c([nH]c12)C(CC(=O)O)(C1CCC1)OCC3 (centres unmarked) [Example 317, (5-cyano-1-cyclobutyl-6-fluoro-8-methyl-1,3,4,9-tetrahydropyrano[3,4-b]indol-1-yl)acetic acid] | 6.22 | 6.05
CC[C@H](C)[C@@]1(CC(=O)O)OCCc2c1[nH]c1c(C)cc(F)c(C#N)c21 [Example 319, (1R,10S)-[5-cyano-6-fluoro-8-methyl-1-(1-methylpropyl)-1,3,4,9-tetrahydropyrano[3,4-b]indol-1-yl]acetic acid] | 7.22 | 7.10
CC[C@H](C)[C@]1(CC(=O)O)OCCc2c1[nH]c1c(C)cc(F)c(C#N)c21 [Example 320, (1S,10S)-[5-cyano-6-fluoro-8-methyl-1-(1-methylpropyl)-1,3,4,9tetrahydropyrano[3,4-b]indol-1-yl]acetic acid] | 5.54 | 5.22
CCCC1(CC(=O)O)OCCc2c1[nH]c1c(Cl)ccc(C#N)c21 (centres unmarked) [Example 321, (8-chloro-5-cyano-1-propyl-1,3,4,9-tetrahydropyrano[3,4-b]indol-1-yl)acetic acid] | 6.52 | 6.22
CCC[C@]1(CC(=O)O)OCCc2c1[nH]c1c(Cl)ccc(C#N)c21 [Example 322, (1R)-(8-chloro-5-cyano-1-propyl-1,3,4,9-tetrahydropyrano[3,4-b]indol-1-yl)acetic acid] | 7.40 | 6.80
CCC[C@@]1(CC(=O)O)OCCc2c1[nH]c1c(Cl)ccc(C#N)c21 [Example 323, (1S)-(8-chloro-5-cyano-1-propyl-1,3,4,9-tetrahydropyrano[3,4-b]indol-1-yl)acetic acid] | 5.31 | 4.96
CC[C@H](C)[C@@]1(CC(=O)O)OCCc2c1[nH]c1c(Cl)ccc(C#N)c21 [Example 325, (1R,10S)-[8-Chloro-5-cyano-1-(1-methylpropyl)-1,3,4,9-tetrahydropyrano[3,4-b]indol-1yl]acetic acid] | 7.10 | 6.72
CC[C@H](C)[C@]1(CC(=O)O)OCCc2c1[nH]c1c(Cl)ccc(C#N)c21 [Example 326, (1S,10S)-[8-Chloro-5-cyano-1-(1-methylpropyl)-1,3,4,9-tetrahydropyrano[3,4-b]indol-1-yl]acetic acid] | 5.19 | 5.03
N#Cc1ccc(Cl)c2[nH]c3c(c12)CCOC3(CC(=O)O)C1CCC1 (centres unmarked) [Example 327, (8-chloro-5-cyano-1-cyclobutyl-1,3,4,9-tetrahydropyrano[3,4-b]indol-1-yl)acetic acid] | 6.10 | 5.77
CCCC1(C(=O)O)OCCc2c1[nH]c1ccc(Cl)c(Cl)c21 (centres unmarked) [Example 328, (5,6-dichloro-1-propyl-1,3,4,9-tetrahydropyrano[3,4-b]indol-1-yl)carboxylic acid] | 5.37 | 5.41
CCCC1(C(=O)O)OCCc2c1[nH]c1c(Cl)ccc(Cl)c21 (centres unmarked) [Example 329, (5,8-dichloro-1-propyl-1,3,4,9-tetrahydropyrano[3,4-b]indol-1-yl)carboxylic acid] | 6.22 | 5.82

Compound | pIC50 [1] | pIC50 [2]
CCCC1(C(=O)O)OCCc2c1[nH]c1c(C)ccc(Cl)c21 (centres unmarked) [Example 330, (5-chloro-8-methyl-1-propyl-1,3,4,9-tetrahydropyrano[3,4-b]indol-1-yl)carboxylic acid] | 5.80 | 5.08
CCCC1(C(=O)O)OCCc2c1[nH]c1c(Cl)ccc(C(F)(F)F)c21 (centres unmarked) [Example 331, (8-chloro-5-trifluoromethyl-1-propyl-1,3,4,9-tetrahydropyrano[3,4-b]indol-1-yl)carboxylic acid] | 6.30 | 5.60
CCCC1(C(=O)O)OCCc2c1[nH]c1c(F)ccc(C(F)(F)F)c21 (centres unmarked) [Example 332, (8-fluoro-5-trifluoromethyl-1-propyl-1,3,4,9-tetrahydropyrano[3,4-b]indol-1-yl)carboxylic acid] | 5.19 | 4.85
CCCC1(C(=O)O)OCCc2c1[nH]c1c(C)ccc(C(F)(F)F)c21 (centres unmarked) [Example 333, (5-trifluoromethyl-8-methyl-1-propyl-1,3,4,9-tetrahydropyrano[3,4-b]indol-1-yl)carboxylic acid] | 5.89 | 5.12
CCCC1(C(=O)O)OCCc2c1[nH]c1c(C)ccc(C#N)c21 (centres unmarked) [Example 334, (5-cyano-8-methyl-1-propyl-1,3,4,9-tetrahydropyrano[3,4-b]indol-1-yl)carboxylic acid] | 5.52 | 5.30
Cc1ccc(C#N)c2c3c([nH]c12)C(C(=O)O)(C1CCC1)OCC3 (centres unmarked) [Example 338, (5-cyano-1-cyclobutyl-8-methyl-1,3,4,9-tetrahydropyrano[3,4-b]indol-1-yl)carboxylic acid] | 5.48 | 5.41
CCCC1(C(=O)O)OCCc2c1[nH]c1c(C)cc(F)c(C#N)c21 (centres unmarked) [Example 339, (5-cyano-6-fluoro-8-methyl-1-propyl-1,3,4,9-tetrahydropyrano[3,4-b]indol-1-yl)carboxylic acid] | 6.31 | 5.55
CCCC1(C(=O)O)OCCc2c1[nH]c1c(CC)ccc(C#N)c21 (centres unmarked) [Example 340, (5-cyano-8-ethyl-1-propyl-1,3,4,9-tetrahydropyrano[3,4-b]indol-1-yl)carboxylic acid] | < 4.52 | < 4.55
CCCC1(C(=O)O)OCCc2c1[nH]c1c(Cl)ccc(C#N)c21 (centres unmarked) [Example 341, (8-chloro-5-cyano-1-propyl-1,3,4,9-tetrahydropyrano[3,4-b]indol-1-yl)carboxylic acid] | 5.77 | 5.44
CCCC1(C(=O)O)OCCc2c1[nH]c1c(F)ccc(C#N)c21 (centres unmarked) [Example 342, (5-cyano-8-fluoro-1-propyl-1,3,4,9-tetrahydropyrano[3,4-b]indol-1-yl)carboxylic acid] | 5.77 | 5.00
CCC[C@@]1(C(=O)O)OCCc2c1[nH]c1c(F)ccc(C#N)c21 [Example 343, (1R)-(5-cyano-8-fluoro-1-propyl-1,3,4,9-tetrahydropyrano[3,4-b]-indol 1-yl)carboxylic acid] | < 4.52 | < 4.52
CCCCC1(C(=O)O)OCCc2c1[nH]c1c(F)ccc(C#N)c21 (centres unmarked) [Example 345, (1-butyl-5-cyano-8-fluoro-1,3,4,9-tetrahydropyrano[3,4-b]indol-1-yl)carboxylic acid] | 5.47 | 5.21
C=CCCC1(C(=O)O)OCCc2c1[nH]c1c(F)ccc(C#N)c21 (centres unmarked) [Example 346, [1-(3-butenyl)-5-cyano-8-fluoro-1,3,4,9-tetrahydropyrano[3,4-b]indol-1-yl]carboxylic acid] | 5.21 | 5.10
N#Cc1ccc(F)c2[nH]c3c(c12)CCOC3(C(=O)O)C1CCCC1 (centres unmarked) [Example 350, (5-cyano-1-cyclopentyl-8-fluoro-1,3,4,9-tetrahydropyrano[3,4-b]indol-1-yl)carboxylic acid] | < 4.52 | < 4.52
N#Cc1ccc(F)c2[nH]c3c(c12)CCOC3(C(=O)O)C1CCCCC1 (centres unmarked) [Example 351, (5-cyano-1-cyclohexyl-8-fluoro-1,3,4,9-tetrahydropyrano[3,4-b]indol-1-yl)carboxylic acid] | < 4.52 | < 4.52
CCCC1(CC(=O)O)OCCc2c1[nH]c1c(C)c(C(=O)O)cc(C#N)c21 (centres unmarked) [Example 353, 1-carboxymethyl-5-cyano-8-methyl-1-propyl-1,3,4,9 tetrahydro-pyrano[3,4-b]indole-7-carboxylic acid] | 5.70 | 6.09
CCCNC(=O)c1cc(C#N)c2c3c([nH]c2c1C)C(CCC)(CC(=O)O)OCC3 (centres unmarked) [Example 354, (5-cyano-8-methyl-1-propyl-7-propylcarbamoyl-1,3,4,9-tetrahydro-pyrano[3,4-b]indol-1-yl)-acetic acid] | 5.52 | 5.70
